Assay results: ChEMBL document CHEMBL3885881, “DrugMatrix”

Species on record: Rattus norvegicus
Assay: DrugMatrix - Regimen: Daily Repeat
Type: toxicity, organism-based, Sprague-Dawley
Design: regimen Daily Repeat, gender Male, age 6-8 weeks
Conditions: in vivo, po, route oral GAVAGE, vehicle .5 % CMC; for ABSOLUTE BASOPHIL / ABSOLUTE EOSINOPHIL / ABSOLUTE LYMPHOCYTE / ABSOLUTE MONOCYTE / ABSOLUTE SEGMENTED NEUTROPHIL / BASOPHIL / EOSINOPHIL / ERYTHROCYTE COUNT / HEMATOCRIT / HEMOGLOBIN / LEUKOCYTE COUNT / LYMPHOCYTE / MEAN CORPUSCULAR HEMOGLOBIN / MEAN CORPUSCULAR HEMOGLOBIN CONCENTRATION / MEAN CORPUSCULAR VOLUME / MONOCYTE / NEUTROPHIL / NUCLEATED RED BLOOD CELLS / PLATELET COUNT: tissue Blood; for ALANINE AMINOTRANSFERASE / ALBUMIN / ALKALINE PHOSPHATASE / ASPARTATE AMINOTRANSFERASE / BLOOD UREA NITROGEN / CARBON DIOXIDE / CHLORIDE / CHOLESTEROL / CREATINE PHOSPHOKINASE / CREATININE / GLUCOSE / LACTATE DEHYDROGENASE / LIPASE / PHOSPHORUS / POTASSIUM / SODIUM / TOTAL BILIRUBIN / TOTAL PROTEIN / URIC ACID: tissue Plasma
[1] = 200 mg/kg, 120 h, dose level Low, time 5 day
[2] = 1500 mg/kg, 72 h, dose level High, time 3 day
[3] = 1500 mg/kg, 120 h, dose level High, time 5 day

`CCn1cc(C(=O)O)c(=O)c2cc(F)c(N3CCNCC3)cc21` [NORFLOXACIN] was tested, and the “ABSOLUTE BASOPHIL” value [1] was 0 CELLS/uL, the “ABSOLUTE EOSINOPHIL” value [1] was 0 CELLS/uL and the “ABSOLUTE LYMPHOCYTE” value [1] was 13445.67 CELLS/uL. The “ABSOLUTE MONOCYTE” value [1] was 43.67 CELLS/uL, the “ABSOLUTE SEGMENTED NEUTROPHIL” value [1] was 644 CELLS/uL and the BASOPHIL [1] was 0%. For the same compound, the EOSINOPHIL [1] was 0%, the “ERYTHROCYTE COUNT” value [1] was 5.72 x10E6/uL and the HEMATOCRIT [1] was 35.23%. For the same compound, the HEMOGLOBIN [1] was 14.43 G/DL, the “LEUKOCYTE COUNT” value [1] was 14.13 x10E3/uL and the LYMPHOCYTE [1] was 95%. For the same compound, the “MEAN CORPUSCULAR HEMOGLOBIN” value [1] was 25.37 pg, the “MEAN CORPUSCULAR HEMOGLOBIN CONCENTRATION” value [1] was 41 G/DL and the “MEAN CORPUSCULAR VOLUME” value [1] was 61.8 fL. The MONOCYTE [1] was 0.33%, the NEUTROPHIL [1] was 4.67% and the “NUCLEATED RED BLOOD CELLS” value [1] was 0.33 /100WBC. The “PLATELET COUNT” value [1] was 1391.67 x10E3/uL, the “ALANINE AMINOTRANSFERASE” value [1] was 60.33 u/L and the ALBUMIN [1] was 4.43 G/DL. For the same compound, the “ALKALINE PHOSPHATASE” value [1] was 370.33 u/L, the “ASPARTATE AMINOTRANSFERASE” value [1] was 99 u/L and the “BLOOD UREA NITROGEN” value [1] was 15.67 mg/dL. The “CARBON DIOXIDE” value [1] was 26.67 mmol/L, the CHLORIDE [1] was 102 MEQ/L and the CHOLESTEROL [1] was 45.67 mg/dL. The “CREATINE PHOSPHOKINASE” value [1] was 920 u/L, the CREATININE [1] was 0.25 mg/dL and the GLUCOSE [1] was 138.67 mg/dL. The “LACTATE DEHYDROGENASE” value [1] was 195.67 u/L, the LIPASE [1] was 9.33 u/L and the PHOSPHORUS [1] was 12.13 mg/dL. For the same compound, the POTASSIUM [1] was 6.16 MEQ/L, the SODIUM [1] was 145 MEQ/L and the “TOTAL BILIRUBIN” value [1] was 0.2 mg/dL. The “TOTAL PROTEIN” value [1] was 6.3 G/DL, the “URIC ACID” value [1] was 1.53 mg/dL and the “ABSOLUTE BASOPHIL” value [2] was 0 CELLS/uL. The “ABSOLUTE EOSINOPHIL” value [2] was 108.33 CELLS/uL, the “ABSOLUTE LYMPHOCYTE” value [2] was 13773 CELLS/uL and the “ABSOLUTE MONOCYTE” value [2] was 98.33 CELLS/uL. For the same compound, the “ABSOLUTE SEGMENTED NEUTROPHIL” value [2] was 1087 CELLS/uL, the BASOPHIL [2] was 0% and the EOSINOPHIL [2] was 0.67%. The “ERYTHROCYTE COUNT” value [2] was 5.77 x10E6/uL, the HEMATOCRIT [2] was 37.03% and the HEMOGLOBIN [2] was 14.53 G/DL. For the same compound, the “LEUKOCYTE COUNT” value [2] was 15.07 x10E3/uL, the LYMPHOCYTE [2] was 91.33% and the “MEAN CORPUSCULAR HEMOGLOBIN” value [2] was 25.2 pg. The “MEAN CORPUSCULAR HEMOGLOBIN CONCENTRATION” value [2] was 39.23 G/DL, the “MEAN CORPUSCULAR VOLUME” value [2] was 64.2 fL and the MONOCYTE [2] was 0.67%. For the same compound, the NEUTROPHIL [2] was 7.33%, the “NUCLEATED RED BLOOD CELLS” value [2] was 0 /100WBC and the “PLATELET COUNT” value [2] was 1268.67 x10E3/uL. The “ALANINE AMINOTRANSFERASE” value [2] was 62.67 u/L, the ALBUMIN [2] was 4.2 G/DL and the “ALKALINE PHOSPHATASE” value [2] was 453 u/L. The “ASPARTATE AMINOTRANSFERASE” value [2] was 76 u/L, the “BLOOD UREA NITROGEN” value [2] was 16 mg/dL and the “CARBON DIOXIDE” value [2] was 32.33 mmol/L. For the same compound, the CHLORIDE [2] was 101.33 MEQ/L, the CHOLESTEROL [2] was 46.67 mg/dL and the “CREATINE PHOSPHOKINASE” value [2] was 192 u/L. For the same compound, the CREATININE [2] was 0.24 mg/dL, the GLUCOSE [2] was 128 mg/dL and the “LACTATE DEHYDROGENASE” value [2] was 150 u/L. The LIPASE [2] was 9.33 u/L, the PHOSPHORUS [2] was 11.07 mg/dL and the POTASSIUM [2] was 6.55 MEQ/L. For the same compound, the SODIUM [2] was 147.2 MEQ/L, the “TOTAL BILIRUBIN” value [2] was 0.13 mg/dL and the “TOTAL PROTEIN” value [2] was 6 G/DL. For the same compound, the “URIC ACID” value [2] was 1.13 mg/dL, the “ABSOLUTE BASOPHIL” value [3] was 0 CELLS/uL and the “ABSOLUTE EOSINOPHIL” value [3] was 0 CELLS/uL. The “ABSOLUTE LYMPHOCYTE” value [3] was 15656 CELLS/uL, the “ABSOLUTE MONOCYTE” value [3] was 107.67 CELLS/uL and the “ABSOLUTE SEGMENTED NEUTROPHIL” value [3] was 603 CELLS/uL. For the same compound, the BASOPHIL [3] was 0%, the EOSINOPHIL [3] was 0% and the “ERYTHROCYTE COUNT” value [3] was 5.97 x10E6/uL. The HEMATOCRIT [3] was 36.5%, the HEMOGLOBIN [3] was 14.8 G/DL and the “LEUKOCYTE COUNT” value [3] was 16.37 x10E3/uL. The LYMPHOCYTE [3] was 95.67%, the “MEAN CORPUSCULAR HEMOGLOBIN” value [3] was 24.83 pg and the “MEAN CORPUSCULAR HEMOGLOBIN CONCENTRATION” value [3] was 40.53 G/DL. For the same compound, the “MEAN CORPUSCULAR VOLUME” value [3] was 61.23 fL, the MONOCYTE [3] was 0.67% and the NEUTROPHIL [3] was 3.67%. For the same compound, the “NUCLEATED RED BLOOD CELLS” value [3] was 0 /100WBC, the “PLATELET COUNT” value [3] was 1304.33 x10E3/uL and the “ALANINE AMINOTRANSFERASE” value [3] was 82 u/L. For the same compound, the ALBUMIN [3] was 4.47 G/DL, the “ALKALINE PHOSPHATASE” value [3] was 305.67 u/L and the “ASPARTATE AMINOTRANSFERASE” value [3] was 89.67 u/L. The “BLOOD UREA NITROGEN” value [3] was 17.33 mg/dL, the “CARBON DIOXIDE” value [3] was 22.33 mmol/L and the CHLORIDE [3] was 102.33 MEQ/L. The CHOLESTEROL [3] was 48 mg/dL, the “CREATINE PHOSPHOKINASE” value [3] was 264 u/L and the CREATININE [3] was 0.43 mg/dL. The GLUCOSE [3] was 145.33 mg/dL, the “LACTATE DEHYDROGENASE” value [3] was 298.67 u/L and the LIPASE [3] was 12 u/L. It also gave a PHOSPHORUS [3] of 10.97 mg/dL, a POTASSIUM [3] of 6.62 MEQ/L and an SODIUM [3] of 145.07 MEQ/L. For the same compound, the “TOTAL BILIRUBIN” value [3] was 0.13 mg/dL, the “TOTAL PROTEIN” value [3] was 6.77 G/DL and the “URIC ACID” value [3] was 2.07 mg/dL.
